Results published in patent US9879050B2, “Substituted urea depsipeptide analogs as activators of the CLPP endopeptidase” (priority 2013, dated 2018).
≈ marks a conversion by molar mass, not a printed value. Like-named read-outs stand apart in the source and are kept apart here.

Columns and labels:
[1] = tested on: S. aureus USA 300 ΔClpP; experiment: Minimal inhibitory concentration, microbroth dilution; format: cell-based, Staphylococcus aureus; settings: ClpP inactivated strain
Outline: (§1)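 Susceptibility testing used the CLSI dilution standard, with bacteria at ~10^5 cfu/mL exposed to a two-fold compound series beginning at 200 μM final. The endpoint is the lowest concentration showing no growth after overnight incubation (37 °C, aerobic).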

[2] = tested on: E. coli K12ΔtolC; experiment: as above; format: cell-based
Outline: as §1

[3] = molecular target: T1, S. aureus ClpP (Sa-ClpP) (Staphylococcus aureus, UniProt Q2G036); experiment: ClpP activation, casein-BODIPY digestion assay (first described method); format: biochemical; settings: first described ClpP activation assay (**); 10 μM saClpP, 25 μg/ml BODIPY FL casein, 37° C.; read-out: ClpP Activation EC50
T1 construct: made in house; host or cells: E. coli BL21 (DE3)
T1 sequence (Q2G036 whole entry): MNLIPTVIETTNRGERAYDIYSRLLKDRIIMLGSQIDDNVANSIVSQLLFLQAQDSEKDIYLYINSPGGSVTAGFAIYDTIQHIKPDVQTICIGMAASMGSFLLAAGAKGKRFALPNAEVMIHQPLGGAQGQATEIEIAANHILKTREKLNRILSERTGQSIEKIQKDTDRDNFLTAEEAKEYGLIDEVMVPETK
Protocol: The compounds were assayed in a casein digestion assay in order to determine their effect on ClpP activation. Briefly, the assay was carried out using S. aureus ClpP (“Sa-ClpP”) overexpressed in E. coli BL21 (DE3) and purified in a two-step process. Purity of the protein was assessed through SDS PAGE analysis. EC50 evaluations were conducted in triplicate in a 20 μl assay format using a method adapted from Maurizi et al. (Methods Enzymol. (1994) 244:314-331.). Each well contained 10 μM saClpP, 25 μg/ml BODIPY FL casein (Invitrogen Corporation, San Diego, Calif.), and test compound in concentrations ranging between 0-100 μM in assay buffer (50 mM Tris pH 8, 200 mM KCl, and 1 mM TCEP). The reaction took place at 37° C. Fluorescence (excitation 485 nm; emission 528 nm) was measured in five minute intervals over a 45 min period using a BioTek HT fluorescence microplate reader (BioTek Instruments, Inc., Winooski, Vt.). Velocity of each reaction was calculated and data was fit to a dose response curve using GraphPad Prism® software (GraphPad Software, Inc., La Jolla, Calif.). EC50 is the effective concentration of compound which causes 50% activation of S. aureus ClpP in the foregoing BODIPY FL casein assay.

[4] = tested on: S. pyogenes ATCC 700294; experiment: Minimal inhibitory concentration, microbroth dilution; format: cell-based
Outline: (§2)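 Twofold serial dilutions in broth per CLSI M7-A7 microbroth dilution, incubated aerobically overnight at 37° C. MIC read visually as lowest concentration preventing bacterial growth.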

[5] = tested on: S. aureus ATCC 29213; experiment: as above; format: cell-based
Outline: as §1

[6] = tested on: E. faecails ATCC 33186; experiment: as above; format: cell-based; settings: Enterococcus faecalis, ATCC33186, read-out: Minimal Inhibitory Concentration E. faecails ATCC 33186
Outline: as §1

[7] = tested on: S. pneumoniae DAW27; experiment: as above; format: cell-based
Outline: as §1

[8] = tested on: B. subtilis ATCC 23857; experiment: as above; format: cell-based
Outline: as §1

[9] = Cytotoxicity assay, CellTiter-Glo cell viability; format: cell-based; settings: African green monkey
Outline: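 Vero cells seeded overnight at 37 °C in DMEM with 10% FBS, then exposed to serial dilutions of compound for 72 h. Viability read by CellTiter-Glo luminescence; IC50 from duplicates, given as the range of two independent experiments.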

[10] = molecular target: T2, Sa-ClpP (Staphylococcus aureus, UniProt Q2G036); experiment: ADEP displacement fluorescence polarization assay; format: binding, S. aureus; settings: 1 μM Sa-ClpP, 50 nM FP probe ADEP 2591; read-out: ADEP Displacement IC50
T2 construct: made in house; host or cells: E. coli BL21 (DE3)
T2 sequence (Q2G036 whole entry): as above
Outline: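 Displacement of TAMRA-labelled ADEP 2591 probe (50 nM) from 1 μM Sa-ClpP, pre-equilibrated 1 h in Tris·HCl pH 8.0 with 2% DMSO, then 120 min at room temperature with compound, triplicate. Polarization (mP) read ex 530/em 579 nm, normalised to 20 μM ADEP 2378 and DMSO controls; four-parameter fit.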

[11] = molecular target: T2, Sa-ClpP; experiment: ClpP activation, EnzCheck Protease Assay with Bodipy-FL casein (second described method); format: biochemical, S. aureus; settings: read-out: ClpP Activation EC50 (converted)
Outline: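 Sa-ClpP (2 μM in master mix) with Bodipy-FL casein (2 μM in master mix) in Tris-HCl pH 8.0, 0.01% Triton X-100, compounds in 2% DMSO, triplicate. Fluorescence (ex 485/em 520 nm) followed 30 min; degradation slopes normalized to ADEP4 and DMSO controls, EC50 and % activation by four-parameter fit.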

[12] = tested on: S. pneumoniae R6; experiment: Minimal inhibitory concentration, microbroth dilution; format: cell-based; settings: Streptococcus pneumoniae, R6; read-out: Minimal Inhibitory Concentration S. pneumoniae R6
Outline: as §2

[13] = tested on: S. aureus NRS70; experiment: as above; format: cell-based; settings: Staphylococcus aureus, NRS70; read-out: Minimal Inhibitory Concentration S. aureus NRS70
Outline: as §1

[14] = tested on: S. aureus USA 300; experiment: as above; format: cell-based; settings: Staphylococcus aureus, USA300; read-out: Minimal Inhibitory Concentration S. aureus USA 300
Outline: as §1

[15] = Streptococcus pyogenes, ATCC700294, read-out: Minimal Inhibitory Concentration S. pyogenes ATCC 700294
[16] = Staphylococcus aureus, ATCC29213, read-out: Minimal Inhibitory Concentration S. aureus ATCC 29213
[17] = Streptococcus pneumoniae, DAW27, read-out: Minimal Inhibitory Concentration S. pneumoniae DAW27
[18] = Bacillus subtilis, ATCC23857, read-out: Minimal Inhibitory Concentration B. subtilis ATCC 23857
[19] = Vero cells, 72 hours, read-out: Cytotoxicity IC50
[20] = Streptococcus pneumoniae, DAW27; read-out: Minimal Inhibitory Concentration S. pneumoniae DAW27

Structure (SMILES)	Minimal Inhibitory Concentration E. coli K12ΔtolC [2]	EC50 [3]	IC50 at 72 h [9, 19]	IC50 [10]	IC50 at 72 h [9]	EC50 [11]	further results
O=C(N[C@H](CO)[C@H](O)c1ccc([N+](=O)[O-])cc1)C(Cl)Cl [Chloroamphenicol, chloramphenicol, reference compound]	0.78 µM						Minimal Inhibitory Concentration S. aureus USA 300 ΔClpP [1]: 6.3 µM
C[C@@H]1C[C@H]2C(=O)OC[C@H](NC(=O)[C@H](Cc3ccccc3)NC(=O)Nc3ccccc3)C(=O)N3CCC[C@H]3C(=O)N3CCCC[C@H]3C(=O)N[C@@H](C)C(=O)N2C1 [Compound 1, (S)—N-((2R,6S,8aS,14aS,20S,23aS)-2,6-Dimethyl-5,8,14,19,23-Pentaoxooctadecahydro-1H,5H,14H,19H-Pyrido[2,1-I]Dipyrrolo[2,1-C:2′,1′-L][1]Oxa[4,7,10,13]Tetraazacyclohexadecin-20-Yl)-3-Phenyl-2-(3-Phenylureido)Propanamide]	200 µM	3.6 ± 0.4 µM	> 100 µM	6.72 ± 0.4 µM			MIC [4, 15]: 1.56 µM (≈ 1.16 µg/mL); MIC [5, 16]: 6.25 µM (≈ 4.65 µg/mL); MIC [6]: 3.13 µM (≈ 2.33 µg/mL); MIC [7, 17]: 0.78 µM (≈ 0.58 µg/mL); MIC [8, 18]: 1.56 µM (≈ 1.16 µg/mL)
C[C@@H]1C[C@H]2C(=O)OC[C@H](NC(=O)[C@H](Cc3ccccc3)NC(=O)Nc3ccc(OC(F)(F)F)cc3)C(=O)N3CCC[C@H]3C(=O)N3CCCC[C@H]3C(=O)N[C@@H](C)C(=O)N2C1 [Compound 2, (S)—N-((2R,6S,8aS,14aS,20S,23aS)-2,6-Dimethyl-5,8,14,19,23-Pentaoxooctadecahydro-1H,5H,14H,19H-Pyrido[2,1-I]Dipyrrolo[2,1-C:2′,1′-L][1]Oxa[4,7,10,13]Tetraazacyclohexadecin-20-Yl)-3-Phenyl-2-(3-(4-(Trifluoromethoxy)Phenyl)Ureido)Propanamide]	12.5 µM	2.6 ± 0.4 µM		7.66 ± 0.3 µM	88.3 ± 15.2 µM	0.5 µM	
CCc1ccc(NC(=O)N[C@@H](Cc2ccccc2)C(=O)N[C@H]2COC(=O)[C@@H]3C[C@@H](C)CN3C(=O)[C@H](C)NC(=O)[C@@H]3CCCCN3C(=O)[C@@H]3CCCN3C2=O)cc1 [Compound 4, (S)—N-((2R,6S,8aS,14aS,20S,23aS)-2,6-Dimethyl-5,8,14,19,23-Pentaoxooctadecahydro-1H,5H,14H,19H-Pyrido[2,1-1]Dipyrrolo[2,1-C:2′,1′-L][1]Oxa[4,7,10,13]Tetraazacyclohexadecin-20-Yl)-2-(3-(4-Ethylphenyl)Ureido)-3-Phenylpropanamide]	25 µM	1.4 ± 0.1 µM		29 ± 2.1 µM	73.7 ± 8.4 µM	5.5 µM	
COc1cccc(NC(=O)N[C@@H](Cc2ccccc2)C(=O)N[C@H]2COC(=O)[C@@H]3C[C@@H](C)CN3C(=O)[C@H](C)NC(=O)[C@@H]3CCCCN3C(=O)[C@@H]3CCCN3C2=O)c1 [Compound 8, (S)—N-((2R,6S,8aS,14aS,20S,23aS)-2,6-Dimethyl-5,8,14,19,23-Pentaoxooctadecahydro-1H,5H,14H,19H-Pyrido[2,1-I]Dipyrrolo[2,1-C:2′,1′-L][1]Oxa[4,7,10,13]Tetraazacyclohexadecin-20-Yl)-2-(3-(3-Methoxyphenyl)Ureido)-3-Phenylpropanamide]	200 µM	3 ± 0.4 µM		16.3 ± 0.8 µM	> 100 µM	1.3 µM	
C[C@@H]1C[C@H]2C(=O)OC[C@H](NC(=O)[C@H](Cc3ccccc3)NC(=O)Nc3ccc4ccn(C)c4c3)C(=O)N3CCC[C@H]3C(=O)N3CCCC[C@H]3C(=O)N[C@@H](C)C(=O)N2C1 [Compound 12, (S)—N-((2R,6S,8aS,14aS,20S,23aS)-2,6-Dimethyl-5,8,14,19,23-Pentaoxooctadecahydro-1H,5H,14H,19H-Pyrido[2,1-I]Dipyrrolo[2,1-C:2′,1′-L][1]Oxa[4,7,10,13]Tetraazacyclohexadecin-20-Yl)-2-(3-(1-Methyl-1H-Indol-6-Yl)Ureido)-3-Phenylpropanamide]		3.2 ± 0.5 µM	90 ± 7.6 µM	6.81 ± 0.4 µM			MIC [4, 15]: 0.6 µM (≈ 0.478 µg/mL); MIC [5, 16]: 2.5 µM (≈ 1.99 µg/mL); MIC [6]: 1.25 µM (≈ 0.996 µg/mL); MIC [7, 17]: 0.3 µM (≈ 0.239 µg/mL); MIC [8, 18]: 2.5 µM (≈ 1.99 µg/mL)
C[C@H]1C[C@H]2C(=O)O[C@@H](C)[C@H](NC(=O)[C@H](Cc3cc(F)cc(F)c3)NC(=O)Nc3ccc(OC(F)(F)F)cc3)C(=O)N3CCC[C@H]3C(=O)N3CCCC[C@H]3C(=O)N[C@@H](C)C(=O)N2C1 [Compound 22, (S)-3-(3,5-Difluorophenyl)-2-(3-(4-(Trifluoromethoxy)Phenyl)Ureido)-N-((2R,6S,8aS,14aS,20S,21S,23aS)-2,6,21-Trimethyl-5,8,14,19,23-Pentaoxooctadecahydro-1H,5H,14H,19H-Pyrido[2,1-I]Dipyrrolo[2,1-C:2′,1′-L][1]Oxa[4,7,10,13]Tetraazacyclohexadecin-20-Yl)Propanamide]		3.6 ± 0.4 µM	52.3 ± 7.7 µM	8.9 ± 0.3 µM		0.32 µM	
C[C@H]1CC2C(=O)O[C@@H](C)[C@H](NC(=O)[C@H](Cc3cc(F)cc(F)c3)NC(=O)Nc3ccc(OC(F)(F)F)cc3)C(=O)N3CCCC3C(=O)N(C)[C@@H]([C@H](C)O)C(=O)N[C@@H](C)C(=O)N2C1 (stereo partly drawn) [Compound 36, (S)-3-(3,5-Difluorophenyl)-N-((2S,6S,9S,11aS,17S,18S,20aS)-9-((S)-1-Hydroxyethyl)-2,6,10,18-Tetramethyl-5,8,11,16,20-Pentaoxohexadecahydro-1H,5H,16H-Dipyrrolo[2,1-C:2′,1′-L][1]Oxa[4,7,10,13]Tetraazacyclohexadecin-17-Yl)-2-(3-(4-(Trifluoromethoxy)Phenyl)Ureido)Propanamide]							MIC ([4]; Streptococcus pyogenes, ATCC700294; read-out: Minimal Inhibitory Concentration S. pyogenes ATCC 700294): 0.2 µM (≈ 0.176 µg/mL); MIC [12]: 0.024 µM (≈ 0.0212 µg/mL); Minimal Inhibitory Concentration S. aureus USA 300 ΔClpP [1]: 50 µM; MIC [13]: 0.05 µM (≈ 0.0441 µg/mL); MIC ([5]; Staphylococcus aureus, ATCC29213; read-out: Minimal Inhibitory Concentration S. aureus ATCC 29213): 0.1 µM (≈ 0.0882 µg/mL); MIC [14]: 0.1 µM (≈ 0.0882 µg/mL); MIC ([8]; Bacillus subtilis, ATCC23857; read-out: Minimal Inhibitory Concentration B. subtilis ATCC 23857): 0.1 µM (≈ 0.0882 µg/mL)
NC[C@H]1O[C@H](O[C@H]2[C@H](O)[C@@H](O[C@H]3O[C@H](CO)[C@@H](O)[C@H](N)[C@H]3O)[C@H](N)C[C@@H]2N)[C@H](O)[C@@H](O)[C@@H]1O [Kanamycin, kanamycin, reference compound]	0.4 µM						MIC [7, 20]: 25 µM (≈ 12.1 µg/mL)
CN(C)[C@@H]1C(O)=C(C(N)=O)C(=O)[C@@]2(O)C(O)=C3C(=O)c4c(O)cccc4[C@@](C)(O)[C@H]3C[C@@H]12 [Tetracycline, tetracycline, reference compound]	12.5 µM						MIC [7, 20]: 0.1 µM (≈ 0.0444 µg/mL)
